{"source": "patent US10988766B2", "about": "“Compositions and methods used in diagnosing and treating colorectal cancer” (Oregon Health & Science University, priority 2017, dated 2021)", "format_in_all_cases": "cell-based, human", "key": {"[1]": {"tested_on": "HCT-116 cells", "assay": "Colony formation assay (surviving fraction)", "conditions": "miR-451a mimic vs control mimic, 0, 2 or 5 Gy, colonies counted 12-14 days after plating", "experimental": "Cells were transfected with miR-451a-5p mimic or control mimic for 16 hours. Then cells were plated (100 or 200 cells for 0Gy, 200 or 400 cells/well for 2GY and 400 or 800 cells per well for 5Gy) in triplicate in a 6-well plate. Cells were irradiated 4 hours after plating, 0Gy, 2Gy or 5Gy. Two weeks after plating, cells were fixed and stained with crystal violet and colonies were counted. Surviving fraction was calculated based on the colony numbers normalized to the plating efficiency."}, "[2]": {"tested_on": "CAB39, EMSY, EREG, and MEX3C mRNAs", "assay": "miR-TRAP / RISC Trap assay", "conditions": "HCT116 co-transfected with mutant RISC complex plasmid and miR-451a mimic or control mimic", "description": "Fold enrichment over pre-IP mRNAs is depicted. Results are representative of two independent experiments.\nHCT116 cells were co-transfected with a plasmid coding for a flag-tagged dominant negative […] mutant (Clontech kit #632016) along with a control mimic or miR-451a-5p mimic according to manufacturer instructions. Twenty-four hours later the RNA protein complexes were crosslinked and the RISC complex was immunoprecipitated using an anti-FLAG antibody and RNA was isolated for quantitative real-time PCR of target genes. The fold enrichment was calculated using pre and post IP controls as well as normalization to the control mimic pull-downs."}, "[3]": {"tested_on": "HCT116", "assay": "Proliferation after radiation and 5-FU treatment", "conditions": "miR-451a mimic vs control mimic, radiation and 5-FU (5 μM), 48 and 96 hours", "experimental": "FIG. 6A is a graph of HCT116 transfected with a miR-451a mimic or a control mimic. Proliferation was analyzed 48 hours after radiation and 5-FU (5 μM) treatment. Mean of triplicate wells is plotted. * indicates P<0.01 on a two-tailed Student's T-test.\nFIG. 6B is a graph of HCT116 transfected with a miR-451a mimic or a control mimic. Proliferation was analyzed 96 hours after radiation and 5-FU (5 μM) treatment. Mean of triplicate wells is plotted. * indicates P<0.01 on a two-tailed Student's T-test\n(§1) HCT-116 cells were transfected in a 6 well plate with miR-451a-5p mimic or inhibitor, and the corresponding controls from Life Technologies as previously described. Cells were transferred to a 96 well plate 16 hours post-transfection (1000 cells/well). At 24 hours post-transfection the HCT-116 cells were irradiated with 0, 2, or 5 Gy. Cell Titer-Glo and Caspase 3/7 Glo were analyzed at 48 hours and 96 hours post-irradiation, according to manufacturer's instructions."}, "[4]": {"tested_on": "CAB39, EMSY, EREG, and MEX3C mRNA in HCT-116 cells", "assay": "qRT-PCR of the miR-451 targets after transfection", "conditions": "24 h after transfection", "experimental": "FIG. 4C is a plot of the results of qRT-PCR of the miR-451 targets in HCT-116 cells at 24 h after transfection.\nThis list was narrowed by filtering genes with a known role in human colorectal cancer and/or cellular response to ionizing radiation. […] A miR-Trap assay was used to pull down mRNAs enriched at the RNA induced silencing complex in cells transfected with miR-451a."}, "[5]": {"tested_on": "HCT-116 cells", "assay": "Proliferation in 2D culture (Cell Titer-Glo) after transfection and radiation", "description": "HCT-116 cells were reverse transfected with miR-451a-5p mimics, inhibitors and their respective controls were purchased from Life Technologies using Lipofectamine RNAiMAX (Invitrogen) according to manufacturer's instructions.\nCells or mice were irradiated on a Shepherd^137 cesium irradiator at a rate of […] 1.34 cGy min. In tumour-targeted radiation experiments, mice were restrained in a lead shield (Brain Tree Scientific) to minimize exposure to the non-tumour areas.\nas §1"}, "[6]": {"tested_on": "HCT-116 cells", "assay": "Tumorsphere (3D culture) proliferation assay after transfection and radiation", "conditions": "miR-451a mimic vs control mimic, 48 hours after radiation", "experimental": "(§2) FIG. 2B is a graph showing results where HCT116 were transfected with a miR-451a mimic or a control mimic. Proliferation was analyzed 48 hours after radiation in 3D cultures with the indicated doses. Bars depict mean±s.e.m. of triplicate wells. ** indicates P<0.01 on a two-tailed Student's T-test.\nas §2, with “3B” for “2B”, “inhibitor (anti-miR-451a)” for “mimic”, “anti-miR.” for “mimic.”, “culture” for “cultures”\nas §1"}, "[7]": {"tested_on": "HCT-116 cells reverse transfected with anti-miR-451a", "assay": "Chemosensitivity model: cell proliferation (CellTiter-Glo) with SHP2 and RAF inhibitors", "conditions": "3.5 uM SHP2-inhibitor, 20 uM RAF-inhibitor, alone or combined; treated 24 hours post transfection", "experimental": "HCT-116 cells (American Type Culture Collection) were cultured in McCoy's media supplemented with 10% fetal bovine serum (FBS) and antibiotics. Cells were tested and found negative for mycoplasma contamination before use in the assays described. Cells were reverse transfected with miR-451a-5p mimics or inhibitors with their respective controls (purchased from Life Technologies), using Lipofectamine® RNAiMAX (Invitrogen) per manufacturer's instructions. We report highly efficient transfection (>90%) of mimics and inhibitors in cell culture, as measured by fluorescent miR control. Cells were irradiated in a Shepherd^137 cesium irradiator at a rate of 1.34 cGy min. HCT-116 cells were initially transfected in a six-well plate, then transferred to a 96-well plate 16 hours post-transfection (2000 cells/well). In the chemosensitivity model, HCT-116 cells were treated with SHP2 inhibitor SHP099, 6-([…]-4-methyl-1-piperidinyl)-3-(2,3-dichlorophenyl)-2-pyrazinamine (Cayman Chemical, cat#20000) (3.5 μM), and RAF inhibitor (selective paradox breaker; SelleckChem, PLX7904, N′-[3-[[5-(2-cyclopropyl-5-pyrimidinyl)-1H-pyrrolo[2,3-b]pyridin-3-yl]carbonyl]-2,4-difluorophenyl]-N-ethyl-N-methyl-sulfamide, cat#57964) (20 μM) at 24 hours post transfection. Cell proliferation was analyzed at 48 hours post irradiation, using CellTiter-Glo®, per the manufacturer's instructions."}}}
{"compound": "miR-451a: miR-451a-5p mimic purchased from Life Technologies, transfected into HCT-116 cells; tumor suppressor miRNA (AAACCGUUACCAUUACUGAGUU; listed as RNA, chemistry not given here; listed as Homo sapiens)", "values": [{"measurement": "surviving fraction colony formation", "setting": "[1]", "value": "decreased proliferation"}, {"measurement": "enrichment of target mRNAs at the RNA induced silencing complex", "setting": "[2]", "value": "enriched at the RISC"}, {"measurement": "responses to 5-FU (proliferation)", "setting": "[3]", "value": "enhanced the responses to 5-FU"}, {"measurement": "target gene expression at the mRNA level", "setting": "[4]", "value": "significant downregulation of all four target genes"}, {"measurement": "proliferation in a 2D culture", "setting": "[5]; miR-451a mimic vs control mimic, 48 hours after radiation", "value": "decreased proliferation"}, {"measurement": "effect in combination with radiation", "setting": "[5]; on the phenotypes (proliferation, tumorsphere, colony formation), especially at the 5 Gy dose", "value": "slight additive effect with radiation"}, {"measurement": "proliferation in a tumorsphere assay", "setting": "[6]", "value": "decreased proliferation"}]}
{"compound": "CC1(N)CCN(c2cnc(-c3cccc(Cl)c3Cl)c(N)n2)CC1", "note": "[SHP2-inhibitor, 6-(4-diamino-4-methyl-1-piperidinyl)-3-(2,3-dichlorophenyl)-2-pyrazinamine]", "values": [{"measurement": "cell proliferation", "setting": "[7]", "value": "significant decrease in cell proliferation"}]}
{"compound": "CCN(C)S(=O)(=O)Nc1ccc(F)c(C(=O)c2c[nH]c3ncc(-c4cnc(C5CC5)nc4)cc23)c1F", "note": "[RAF-inhibitor, N′-[3-[[5-(2-cyclopropyl-5-pyrimidinyl)-1H-pyrrolo[2,3-b]pyridin-3-yl]carbonyl]-2,4-difluorophenyl]-N-ethyl-N-methyl-sulfamide]", "values": [{"measurement": "cell proliferation", "setting": "[7]", "value": "significant decrease in cell proliferation"}]}
